Source: patent US9981961B2, “Deoxycytidine kinase inhibitors” (The Regents of the University of California, priority 2013, dated 2018)

Molecular target: dCK in CCRF-CEM cells (Homo sapiens, UniProt P27707)
Test: cell-based
[1] = IC50 (nM), Table 3, inhibition of 3H-deoxycytidine (dCyd) uptake in CEM cells, mean ± SD of n ≥ 2 unless (n = 1)
[2] = IC50, Example 4 list, assay and unit inferred, values correspond to the CEM 3H-dC uptake data of Tables 3 and 7
[3] = IC50, Example 5 list, assay and unit inferred, values correspond to the CEM data of Table 3

Chain of dCK in CCRF-CEM cells (P27707 whole entry): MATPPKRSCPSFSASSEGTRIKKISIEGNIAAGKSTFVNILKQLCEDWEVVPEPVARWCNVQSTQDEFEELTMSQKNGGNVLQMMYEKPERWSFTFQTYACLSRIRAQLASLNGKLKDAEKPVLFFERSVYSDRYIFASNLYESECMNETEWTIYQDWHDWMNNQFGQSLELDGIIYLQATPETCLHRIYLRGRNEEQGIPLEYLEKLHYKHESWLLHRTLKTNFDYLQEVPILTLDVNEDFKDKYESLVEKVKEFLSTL
Experimental: These were performed in CCRF-CEM acute lymphoblastic leukemia cells as previously described.^8, 9
dCK Uptake Assay Performed in Cell Culture. […] For the uptake assays cells were seeded at a density of 50,000 cells/well in Millipore MultiScreen GV 96 well plates. […] After 1 h at 37° C., cells were washed four times with ice cold phosphate-buffered saline (PBS) using the Millipore Vacuum Manifold. The amount of incorporated probe was measured by scintillation counting with the PerkinElmer Microbeta.

| SMILES | IC50 [1] | IC50 [2] | IC50 [3] |
| --- | --- | --- | --- |
| CCCc1sc(-c2ccc(N(CCNS(C)(=O)=O)S(C)(=O)=O)c(OCCNS(C)(=O)=O)c2)nc1CSc1nc(N)cc(N)n1 [Compound S2] | 1200 nM | 1200 nM |  |
| CCCc1sc(-c2ccc(OC)c(OCCCF)c2)nc1CSc1nc(N)cc(N)n1 [Compound S3] | 2.5 nM | 2.51 nM |  |
| CCCc1sc(-c2ccc(OCCF)c(OCC)c2)nc1CSc1nc(N)cc(N)n1 [Compound S4] | 2.8 nM | 2.86 nM |  |
| CCCc1sc(-c2ccc(F)c(OCCCF)c2)nc1CSc1nc(N)cc(N)n1 [Compound S5] | 31.7 nM | 31.7 nM |  |
| CCCc1sc(-c2ccc(F)c(OCCF)c2)nc1CSc1nc(N)cc(N)n1 [Compound S6] | 23.3 nM | 23.4 nM |  |
| CCCc1sc(-c2ccnc(OCCF)c2)nc1CSc1nc(N)cc(N)n1 [Compound S7] | 6.8 nM | 6.84 nM |  |
| [2H]C([2H])(Sc1nc(N)cc(N)n1)c1nc(-c2ccnc(OCCF)c2)sc1CCC [Compound S8] | 30 nM | 30 nM |  |
| CCCc1sc(-c2ccc(OC)c(OCCOCCOCCSc3nc(N)cc(N)n3)c2)nc1CSc1nc(N)cc(N)n1 [Compound S10] | 4.7 nM | 4.75 nM |  |
| CCCc1sc(-c2ccc(OC)c(OCCOCCOCCO)c2)nc1CSc1nc(N)cc(N)n1 [Compound S11] | 1.06 nM | 1.06 nM |  |
| COc1ccc(-c2cc(CSc3nc(N)cc(N)n3)c(C)o2)cc1OCCF [Compound S12] | 13500 nM | 13800 nM |  |
| COc1cc(-c2cc(CSc3nc(N)cc(N)n3)c(C)o2)ccc1OCCF [Compound S14] | 276 nM | 276 nM |  |
| CCCc1sc(-c2ccc(OC)c(OCCF)c2)nc1CCc1nc(N)cc(N)n1 [Compound S15] | 664 nM | 664 nM |  |
| CCCc1sc(-c2ccc(OC)c(OCCOCCOCCF)c2)nc1CSc1nc(N)cc(N)n1 [Compound S16] | 4.22 nM | 4.21 nM |  |
| CCCc1sc(-c2cccc(OCCOCCOCCF)c2)nc1CSc1nc(N)cc(N)n1 [Compound S17] | 69.1 nM | 69.1 nM |  |
| COc1cc(-c2cc(CSc3nc(N)cc(N)n3)c(C)s2)ccc1OCCF [Compound S18] | 262 nM | 263 nM |  |
| CCCc1sc(-c2cc(F)cc(OCCOCCOCCF)c2)nc1CSc1nc(N)cc(N)n1 [Compound S19] | 33.7 nM | 33.7 nM |  |
| CCCc1sc(-c2ccc(OC)c(OCCOCCOCCOC)c2)nc1CSc1nc(N)cc(N)n1 [Compound S20, 2-(((2-(4-methoxy-3-(2-(2-(2-methoxyethoxy)ethoxy)ethoxy)phenyl)-5-propylthiazol-4-yl)methyl)thio)pyrimidine-4,6-diamine] | 3.31 nM | 3.31 nM |  |
| CCCc1sc(-c2ccc(OCCOCCOCCOC)c(OCC)c2)nc1CSc1nc(N)cc(N)n1 [Compound S21] | 2.37 nM | 2.37 nM |  |
| CCCc1sc(-c2ccc(OC)c(OCCOCCOCCOC)c2)nc1C(C)Sc1nc(N)cc(N)n1 (stereo not shown) [Compound S22] | 6 nM |  | 6.01 nM |
| COCCOCCOCCOc1cc(-c2nc(C(C)Sc3nc(N)cc(N)n3)c(C)s2)ccc1OC (stereo not shown) [Compound S23] | 8.03 nM |  | 8.03 nM |
| COCCOCCOCCOc1ccc(-c2nc(C(C)Sc3nc(N)cc(N)n3)c(C)s2)cc1OC (stereo not shown) [Compound S24] | 6.1 nM |  | 6.12 nM |
| COCCOCCOCCOc1cc(-c2nc(CSc3nc(N)cc(N)n3)c(C3CC3)s2)ccc1OC [Compound S25] | 23 nM | 5.28 nM |  |
| COCCOCCOCCOc1cc(-c2nc(CSc3nc(N)cc(N)n3)c(C)s2)ccc1OC [Compound S26] | 9.1 nM | 9.3 nM |  |
| COCCOCCOCCOc1cc(-c2nc(C(C)Sc3nc(N)cc(N)n3)c(-c3ccccc3)s2)ccc1OC (stereo not shown) [Compound S28] | 98.9 nM |  |  |
| Cc1sc(-c2cc(F)cc(OCCNS(C)(=O)=O)c2)nc1C(C)Sc1nc(N)cc(N)n1 (stereo not shown) [Compound S31] | 9.07 nM |  |  |
| CCCc1sc(-c2ccc(OC)c(OCCO)c2)nc1CSc1cc(N)nc(N)n1 [DI-42] |  | 330 nM |  |
